From patent US12234227B2, “Pyrazole derivatives as H4 antagonist compounds” (NXERA PHARMA UK LIMITED, priority 2018, dated 2025)
Counter-ions that a name gives are not always drawn. Like-named read-outs stand apart in the source and are kept apart here.

Legend:
[1] = biological target: hERG (Homo sapiens, UniProt Q12809); assay: hERG Assay (QPatch automated patch clamp; single-concentration assay at 30 μM and pIC50 assay)
[2] = biological target: T1, human H4 receptor (Homo sapiens, UniProt Q9H3N8); assay: H4 Antagonist Functional Dynamic Mass Redistribution Assay; format: cell-based; settings: H4 antagonist activity, read-out: Human H4 DMR fpKb (converted)
T1 construct: expressed in transfected cells; host or cells: HEKf cells transduced with baculovirus
T1 sequence (Q9H3N8 whole entry): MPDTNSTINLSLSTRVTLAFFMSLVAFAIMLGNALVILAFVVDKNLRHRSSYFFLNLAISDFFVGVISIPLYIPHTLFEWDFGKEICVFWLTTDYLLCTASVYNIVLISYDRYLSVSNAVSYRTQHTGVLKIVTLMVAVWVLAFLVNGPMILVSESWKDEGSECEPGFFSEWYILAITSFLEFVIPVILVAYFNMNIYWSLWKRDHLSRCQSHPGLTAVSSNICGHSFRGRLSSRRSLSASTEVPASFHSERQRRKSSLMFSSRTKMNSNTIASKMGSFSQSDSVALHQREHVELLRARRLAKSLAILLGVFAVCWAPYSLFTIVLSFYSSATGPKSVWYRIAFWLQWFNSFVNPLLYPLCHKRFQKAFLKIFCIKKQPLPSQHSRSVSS
Method: H4 Antagonist Functional Dynamic Mass Redistribution Assay
HEKf cells were infected using baculovirus expressing the human H4 receptor, plated into fibronectin-coated EPIC plates at a density of 10,000 cells/well and incubated overnight at 37° C. The medium on cells was changed to 30 μL HBSS with 20 mM HEPES per well and 30 nL DMSO were added per well by LabCyte ECHO acoustic dispensing. Following 2 h equilibration at room temperature, 30 nL of H4 ligands prepared in DMSO were stamped by LabCyte ECHO acoustic dispensing into seeded EPIC plates and cellular dynamic mass redistribution was monitored using a Corning EPIC plate reader. Following 45 min measurement, 30 nL/well of histamine EC80 was added and monitored to obtain antagonist assay data. Maximum baseline-corrected responses in […] were used to generate concentration response curves. EC50 values were generated using a 4-parameter logistical fit equation to quantify agonist potencies. Functional antagonist affinity values were generated using the Cheng-Prusoff equation to calculate a pKb value using the antagonist assay data.

[3] = biological target: T1, human H4 receptor; assay: H4 Antagonist Functional cAMP Gi Assay; format: cell-based; settings: H4 antagonist activity, read-out: Human H4 CAMP fpKb (converted)
Method: H4 Antagonist Functional cAMP Gi Assay
HEKf cells were infected overnight using baculovirus expressing the human H4 receptor, then centrifuged at 1,200 rpm for 5 min, frozen in cell freezing medium (Sigma) and stored at −150° C. On the day of assay, the cells were thawed and resuspended in HBSS with 500 nM IBMX to achieve a density of 1,500 cells/well. H4 ligands were prepared in DMSO and stamped by LabCyte ECHO acoustic dispensing at 25 nL in low volume plates. 10 μL/well cells were plated in the presence of 1 μM forskolin, subjected to centrifugation at 1,200 rpm for 1 min and incubated for 30 min prior to addition of Cisbio cAMP detection reagents to a total volume 20 μL/well. For the antagonist assay, cells were pre-incubated with H4 antagonist ligands for 30 min prior to addition of EC80 concentration of histamine and a further 30 min incubation. Following detection reagent addition and shaking at room temperature for 60 min, cAMP accumulation was measured using HTRF on a PheraStar plate reader. EC50 values were generated using a 4-parameter logistical fit equation to quantify agonist potencies. Functional antagonist affinity values were generated using the Cheng-Prusoff equation to calculate a pKb value using the antagonist assay data.

[4] = human, CHO cells stably expressing hERG

Chain of hERG (Q12809 whole entry): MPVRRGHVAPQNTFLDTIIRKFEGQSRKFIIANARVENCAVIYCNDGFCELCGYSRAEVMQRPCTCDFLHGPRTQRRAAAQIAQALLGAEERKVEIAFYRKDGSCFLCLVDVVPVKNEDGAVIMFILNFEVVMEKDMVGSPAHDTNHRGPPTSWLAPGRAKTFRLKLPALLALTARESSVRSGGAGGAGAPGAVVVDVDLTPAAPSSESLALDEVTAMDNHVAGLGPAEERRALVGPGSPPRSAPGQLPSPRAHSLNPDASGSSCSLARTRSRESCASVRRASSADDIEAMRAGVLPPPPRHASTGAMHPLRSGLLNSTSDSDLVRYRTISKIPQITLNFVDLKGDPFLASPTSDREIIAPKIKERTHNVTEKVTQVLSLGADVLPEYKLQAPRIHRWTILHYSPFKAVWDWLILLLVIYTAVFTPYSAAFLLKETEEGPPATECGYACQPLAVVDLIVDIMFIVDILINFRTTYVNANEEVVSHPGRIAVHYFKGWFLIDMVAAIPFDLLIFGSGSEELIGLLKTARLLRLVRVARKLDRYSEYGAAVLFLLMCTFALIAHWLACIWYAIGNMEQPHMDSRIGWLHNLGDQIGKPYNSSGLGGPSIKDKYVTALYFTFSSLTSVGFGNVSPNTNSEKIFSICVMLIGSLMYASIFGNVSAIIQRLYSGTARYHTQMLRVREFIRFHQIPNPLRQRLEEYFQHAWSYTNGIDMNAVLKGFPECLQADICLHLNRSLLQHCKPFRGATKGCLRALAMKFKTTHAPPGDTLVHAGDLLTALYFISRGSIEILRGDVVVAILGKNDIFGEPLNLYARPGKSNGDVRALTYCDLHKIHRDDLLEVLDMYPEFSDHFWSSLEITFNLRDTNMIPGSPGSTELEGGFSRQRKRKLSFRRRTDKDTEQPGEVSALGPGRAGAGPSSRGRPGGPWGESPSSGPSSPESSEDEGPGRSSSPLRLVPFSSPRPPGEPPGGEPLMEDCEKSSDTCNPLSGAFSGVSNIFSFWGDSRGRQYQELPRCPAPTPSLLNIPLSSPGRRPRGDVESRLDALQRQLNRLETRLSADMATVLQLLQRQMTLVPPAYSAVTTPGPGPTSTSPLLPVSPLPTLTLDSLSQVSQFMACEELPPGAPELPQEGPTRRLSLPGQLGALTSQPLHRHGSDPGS

| SMILES | IC50 [1] [µM] | inhibition at 30 µM [1, 4] [%] | Kb [2] [nM] | Kb [3] [nM] | IC50 [1, 4] [µM] |
| --- | --- | --- | --- | --- | --- |
| CN[C@@H]1CCN(c2cc(-c3[nH]ncc3C)nc(N)n2)C1 [Example 4-1, (R)-4-(4-methyl-1H-pyrazol-5-yl)-6-(3-(methylamino)pyrrolidin-1-yl)pyrimidin-2-amine] | ≥ 100 | 14 | 0.501 | 1.26 | – |
| CN[C@@H]1CCN(c2cc(-c3[nH]ncc3Cl)nc(N)n2)C1 [Example 4-3, (R)-4-(4-chloro-1H-pyrazol-5-yl)-6-(3-(methylamino)pyrrolidin-1-yl)pyrimidin-2-amine] | – | 34 | 1.26 | 1.26 | – |
| Cc1cn[nH]c1-c1cc(N2CC[C@@H](N)C2)nc(N)n1 [Example 4-5] | – | 18 | 2.51 | 10 | – |
| CN[C@@H]1CCN(c2cc(-c3[nH]nc(C)c3C)nc(N)n2)C1 [Example 7-1, (R)-4-(3,4-dimethyl-1H-pyrazol-5-yl)-6-(3-(methylamino)pyrrolidin-1-yl)pyrimidin-2-amine dihydrochloride] | – | 14 | 20 | 6.31 | – |
| CCc1n[nH]c(-c2cc(N3CC[C@@H](NC)C3)nc(N)n2)c1C [Example 7-3] | – | – | 20 | 31.6 | – |
| CN[C@@H]1CCN(c2cc(-c3cnn(C)c3)nc(N)n2)C1 [Example 8-2] | – | 13 | 1.26 | 31.6 | – |
| CN[C@@H]1CCN(c2cc(-c3cnn(C4CC4)c3)nc(N)n2)C1 [Example 8-4] | – | 54 | 20 | 50.1 | – |
| CN[C@@H]1CCN(c2cc(-c3cnn(C(F)(F)F)c3)nc(N)n2)C1 [Example 8-7, dihydrochloride] | – | 49 | 3.98 | 3.16 | 31.6 |
| CN[C@@H]1CCN(c2cc(-c3cnn(CCOC)c3)nc(N)n2)C1 [Example 8-10] | ≥ 100 | – | 126 | 126 | – |
| CNC1CN(c2cc(-c3cnn(C(F)(F)F)c3)nc(N)n2)C1 [Example 8-16, ditrifluoroacetate] | > 100 | 33 | 1.58 | 0.794 | – |
| CN[C@@H]1CCN(c2cc(-c3cn[nH]c3C)nc(N)n2)C1 [Example 9-1] | ≥ 100 | – | 3.98 | 7.94 | – |
| CN[C@@H]1CCN(c2cc(-c3cn[nH]c3C(C)C)nc(N)n2)C1 [Example 9-3] | – | 24 | 15.8 | 15.8 | – |
| CN[C@@H]1CCN(c2cc(-c3cn[nH]c3C(F)(F)F)nc(N)n2)C1 [Example 9-6] | – | 18 | 2.51 | 6.31 | – |
| Cc1[nH]ncc1-c1cc(N2CC[C@@H](N)C2)nc(N)n1 [Example 9-7] | – | 12 | 10 | 15.8 | – |
| CN[C@@H]1CCN(c2cc(-c3c(C)n[nH]c3C)nc(N)n2)C1 [Example 10-1] | – | 21 | 39.8 | 50.1 | – |
| CN[C@@H]1CCN(c2cc(-c3cn(C)nc3C)nc(N)n2)C1 [Example 11-1, (R)-4-(1,3-dimethyl-1H-pyrazol-4-yl)-6-(3-(methylamino)pyrrolidin-1-yl)pyrimidin-2-amine] | ≥ 100 | 2 | 2.51 | 12.6 | – |
| CCc1nn(C)cc1-c1cc(N2CC[C@@H](NC)C2)nc(N)n1 [Example 11-2, dihydrochloride] | – | 20 | 79.4 | 79.4 | – |
| CN[C@@H]1CCN(c2cc(N)nc(-c3cnn(C)c3C)c2)C1 [Example 14-1, (R)-6-(1,5-dimethyl-1H-pyrazol-4-yl)-4-(3-(methylamino)pyrrolidin-1-yl)pyridin-2-amine dihydrochloride] | – | – | 12.6 | 20 | – |
| CNC1CN(c2cc(-c3cc(C(F)(F)F)n[nH]3)nc(N)n2)C1 [Example 15-2] | – | – | 10 | – | – |
| Cc1cn[nH]c1-c1cc(N2C[C@H]3CCCN[C@H]3C2)nc(N)n1 [Example 16-7, ditrifluoroacetate] | ≥ 100 | – | 6.31 | – | – |
| CN[C@@H]1CCN(c2cc(-c3[nH]ncc3C(F)F)nc(N)n2)C1 [Example 16-8, ditrifluoroacetate] | – | – | 25.1 | – | – |

| SMILES | IC50 [1] [µM] | inhibition at 30 µM [1, 4] [%] | Kb [2] [nM] | Kb [3] [nM] | IC50 [1, 4] [µM] |
| --- | --- | --- | --- | --- | --- |
| CN[C@@H]1CCN(c2cc(-c3[nH]ncc3C(F)(F)F)nc(N)n2)C1 [Example 16-9, ditrifluoroacetate] | – | – | 20 | – | – |
| CN[C@@H]1CCN(c2cc(-c3[nH]ncc3F)nc(N)n2)C1 [Example 16-10, ditrifluoroacetate] | – | 21 | – | 12.6 | – |
| Nc1nc(-c2[nH]ncc2Cl)cc(N2CC[C@@H](N)C2)n1 [Example 16-11] | – | 27 | – | 7.94 | – |
| CNC1CN(c2cc(-c3[nH]ncc3Br)nc(N)n2)C1 [Example 16-13] | – | – | 5.01 | – | – |
| CN[C@@H]1CCN(c2cc(-c3[nH]ncc3SC)nc(N)n2)C1 [Example 16-14] | – | – | 25.1 | – | – |
| CNC1CN(c2cc(-c3[nH]nc(C)c3C)nc(N)n2)C1 [Example 17-1] | ≥ 31.6 | – | 1.58 | – | – |
| CN[C@@H]1CCN(c2cc(-c3[nH]nc(C)c3C(F)(F)F)nc(N)n2)C1 [Example 17-2] | – | 39 | – | 5.01 | – |
| CN[C@@H]1CCN(c2cc(-c3[nH]nc(C)c3F)nc(N)n2)C1 [Example 17-3] | – | – | 3.98 | – | – |
| CN[C@H]1CCN(c2cc(-c3[nH]nc(C)c3Cl)nc(N)n2)C1 [Example 17-4, dihydrochloride] | – | 39 | 5.01 | – | – |
| CNC1CN(c2cc(-c3[nH]nc(C)c3Cl)nc(N)n2)C1 [Example 17-5] | 25.1 | – | 0.794 | – | – |
| Cc1n[nH]c(-c2cc(N3CC(N)C3)nc(N)n2)c1Cl [Example 17-6, ditrifluoroacetate] | – | – | 12.6 | – | – |
| CN[C@@H]1CCN(c2cc(-c3[nH]nc(C)c3O)nc(N)n2)C1 [Example 17-8] | – | – | 39.8 | – | – |
| CN[C@@H]1CCN(c2cc(-c3[nH]nc(C)c3OC)nc(N)n2)C1 [Example 17-9] | – | – | 3.98 | – | – |
| CN[C@@H]1CCN(c2cc(-c3[nH]nc(C(F)F)c3C)nc(N)n2)C1 [Example 17-10, ditrifluoroacetate] | – | 57 | – | 0.251 | – |
| CNC1CN(c2cc(-c3[nH]nc(C(F)F)c3C)nc(N)n2)C1 [Example 17-11, ditrifluoroacetate] | – | – | 3.16 | – | – |
| CN[C@@H]1CCN(c2cc(-c3[nH]nc(C(F)(F)F)c3C)nc(N)n2)C1 [Example 17-12] | – | 60 | – | 1.58 | – |
| CCc1n[nH]c(-c2cc(N3CC[C@@H](NC)C3)nc(N)n2)c1F [Example 17-13] | – | – | 50.1 | – | – |
| CN[C@@H]1CCN(c2cc(-c3[nH]nc(Cl)c3C)nc(N)n2)C1 [Example 17-14, dihydrochloride] | – | 44 | – | 0.0631 | – |
| CN[C@@H]1CCN(c2cc(-c3[nH]nc(Cl)c3Cl)nc(N)n2)C1 [Example 17-15] | – | 75 | – | 0.0501 | – |
| CN[C@@H]1CCN(c2cc(-c3[nH]nc(OC)c3Cl)nc(N)n2)C1 [Example 17-17] | – | 49 | 5.01 | – | – |
| CN[C@@H]1CCN(c2cc(N)nc(-c3[nH]ncc3C)c2)C1 [Example 18-1, ditrifluoroacetate] | – | – | 0.631 | – | – |
